Experiments:
Type in all cases: cell-based
ER = biological target: T1, ER (Homo sapiens, UniProt P03372); experiment: ER antagonism (T47D ERE luciferase), T47d-kb-Luc cells; settings: read-out: IC50 (ER antagonistm)
T1 construct: endogenous in cells; host or cells: T47d-kb-Luc (T47D stably transfected with a luciferase reporter gene only)
T1 sequence (P03372 1-595): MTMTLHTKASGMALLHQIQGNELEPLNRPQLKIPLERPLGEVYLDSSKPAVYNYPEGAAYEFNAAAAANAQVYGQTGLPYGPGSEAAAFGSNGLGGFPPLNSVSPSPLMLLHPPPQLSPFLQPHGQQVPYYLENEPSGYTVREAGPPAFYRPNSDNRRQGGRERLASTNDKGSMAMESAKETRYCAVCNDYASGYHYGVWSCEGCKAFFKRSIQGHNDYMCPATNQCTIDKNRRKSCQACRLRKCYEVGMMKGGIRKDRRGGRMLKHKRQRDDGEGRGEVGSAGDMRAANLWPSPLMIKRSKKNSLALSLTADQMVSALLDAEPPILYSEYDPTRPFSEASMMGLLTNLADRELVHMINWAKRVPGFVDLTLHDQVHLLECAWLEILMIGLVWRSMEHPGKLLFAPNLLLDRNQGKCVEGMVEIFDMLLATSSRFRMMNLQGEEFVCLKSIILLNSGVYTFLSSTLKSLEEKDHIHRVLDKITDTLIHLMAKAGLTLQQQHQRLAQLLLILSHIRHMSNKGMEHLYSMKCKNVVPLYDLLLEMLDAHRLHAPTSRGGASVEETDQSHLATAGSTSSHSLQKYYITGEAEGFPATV
Experimental: The Antiestrogenic Activity of the Exemplary Compounds was Assessed in T47d-kb-Luc Stably Transfected Human Breast Cancer Cell
Antagonist activities were measured by the compound's ability to inhibit the activity of estradiol, the natural estrogen. Data were then normalized relative to the activity of the estradiol control and determinations were performed for five concentrations of the samples in quadruplicate in at least three separate experiments.

[1] = test system: MCF-7 breast cancer cells; experiment: MCF-7 proliferation / cell viability assay; settings: Homo sapiens, MCF7; MCF-7 proliferation with 0.1 nM 17-beta estradiol; read-out: IC50 (anti-proliferation)
Experimental: The Anti-Proliferative Activities of the Exemplary Compounds were Assessed by a Cell Viability Assay in MCF-7 Breast Cancer Cells
MCF-7 cells were plated in six-well plates at a density of 50,000 each well in 5% FBS DMEM medium. The cells were then treated with exemplary compounds or fulvestrant separately at 6 different doses ranging from 10^−10 M to 10^−5 M for 5 days, while equal volumes of DMSO were used as vehicle controls. Viable cell numbers were counted with a Z Series Coulter Counter instrument (Beckman-Coulter) following manufacturer's instructions. The ratio of drug treated viable cell numbers to vehicle treated viable cell numbers was defined as survival ratio where the control has the survival ratio of 100%.

ERα = biological target: T2, ERα (Homo sapiens, UniProt P03372); experiment: ER degradation in MCF-7 cells (Western blot); settings: for DC50: ER degradation, 24 hours; for Dmax: MCF7, Maximal ER degradation, read-out: Dmax
T2 construct: endogenous in cells; host or cells: MCF-7
T2 sequence (P03372 1-595): T1 sequence (P03372 1-595)
Experimental: Degradation of ER in MCF-7 Breast Cancer Cells by Exemplary Compounds of the Present Disclosure
MCF-7 cells were plated in 24-well plates at a density of 10^5 cells/well. Media containing various drug concentrations were added on the day following plating (day 0) and allowed to incubate for 24 hours for Western blot. Media with the tested compound was changed every other day. Cells were lysed, snapped frozen in liquid nitrogen, and stored at −80° C. until assay for ERα. Media were removed and dishes were washed with 1× DPBS. Lysates were made by adding 150 μL of complete lysis solution and scraping cells into a 1.5 mL microcentrifuge tube. Lysates were placed on a rotisserie at 4° C. for 30 min and then spun at 4° C. at 12000 rcf for 10 min. Supernatants were assayed for protein content, snap-frozen, and stored a −80° C. if not run immediately. Then 50 μg of protein was subjected to Western blot protocol. Membranes were blocked and then incubated with 1:200 dilution of ERα antibody at 4° C. overnight followed by 1:10000 dilution of secondary antibody for 1 h at room temperature. They were then imaged on a LICOR infrared scanner.
FIGS. 1 to 10 show the ER degradation efficacy of compounds 3, 5, 9, 11, 12, 16, 18, 19, 20, 21, 23, 24, 25, 26, 27, 28, 29, 30, 31, 32, 33, 34, 37, 38, and 40 in MCF-7 cells at various concentrations. Degradation of ER was expressed as an DC50 value and was determined for exemplary compounds in Table 1 by calculation of the concentration of compound that was required to give a 50% reduction of ER expression level. Maximal degradation of ER was expressed as a Dmax value by measuring the highest percentage of ER reduction achieved by exemplary compound in the treatment concentration range.

Structure (SMILES) | IC50 (ER) [nM] | IC50 [1] [nM] | DC50 (ERα) [nM] | Dmax (ERα) [%]
CC/C(=C(/c1ccc(OCCN2CCC(CCN3CCN(c4ccc5c(c4)CN(C4CCC(=O)NC4=O)C5=O)CC3)CC2)cc1)c1ccc(B(O)O)cc1)c1ccccc1 (centres unmarked) [Compound 29, (Z)-(4-(1-(4-(2-(4-(2-(4-(2-(2,6-dioxopiperidin-3-yl)-1-oxoisoindolin-5-yl)piperazin-1-yl)ethyl)piperidin-1-yl)ethoxy)phenyl)-2-phenylbut-1-en-1-yl)phenyl)boronic acid] | 10 to 50 | 10 to 50 | 10 to 50 | > 90
CC/C(=C(\c1ccc(OCCN2CCC(CCN3CCN(c4ccc5c(c4)CN(C4CCC(=O)NC4=O)C5=O)CC3)CC2)cc1)c1ccc(B(O)O)cc1)c1ccccc1 (stereo not drawn) [Compound 30, (E)-(4-(1-(4-(2-(4-(2-(4-(2-(2,6-dioxopiperidin-3-yl)-1-oxoisoindolin-5-yl)piperazin-1-yl)ethyl)piperidin-1-yl)ethoxy)phenyl)-2-phenylbut-1-en-l-yl)phenyl)boronic acid] | 10 to 50 | 10 to 50 | < 10 | > 90
CC/C(=C(/c1ccc(OCCCCCN2CCN(c3ccc4c(c3)CN(C3CCC(=O)NC3=O)C4=O)CC2)cc1)c1ccc(B(O)O)cc1)c1ccccc1 (centres unmarked) [Compound 35, (Z)-(4-(1-(4-((5-(4-(2-(2,6-dioxopiperidin-3-yl)-1-oxoisoindolin-5-yl)piperazin-1-yl)pentyl)oxy)phenyl)-2-phenylbut-1-en-1-yl)phenyl)boronic acid] | 10 to 50 | 10 to 50 | 10 to 50 | > 90
CC/C(=C(\c1ccc(OCCCCCN2CCN(c3ccc4c(c3)CN(C3CCC(=O)NC3=O)C4=O)CC2)cc1)c1ccc(B(O)O)cc1)c1ccccc1 (centres unmarked) [Compound 36] | 10 to 50 | 10 to 50 | 10 to 50 | > 90
CC/C(=C(/c1ccc(OCCN2CCN(CCCN3CCN(c4ccc5c(c4)C(=O)N(C4CCC(=O)NC4=O)C5=O)CC3)CC2)cc1)c1ccc(B(O)O)cc1)c1ccccc1 (centres unmarked) [Compound 37, (Z)-(4-(1-(4-(2-(4-(3-(4-(2-(2,6-dioxopiperidin-3-yl)-1,3-dioxoisoindolin-5-yl)piperazin-1-yl)propyl)piperazin-1-yl)ethoxy)phenyl)-2-phenylbut-1-en-1-yl)phenyl)boronic acid] | 10 to 50 | 10 to 50 | < 10 | > 90
CC/C(=C(\c1ccc(OCCN2CCN(CCCN3CCN(c4ccc5c(c4)C(=O)N(C4CCC(=O)NC4=O)C5=O)CC3)CC2)cc1)c1ccc(B(O)O)cc1)c1ccccc1 (centres unmarked) [Compound 38, (E)-(4-(1-(4-(2-(4-(3-(4-(2-(2,6-dioxopiperidin-3-yl)-1,3-dioxoisoindolin-5-yl)piperazin-1-yl)propyl)piperazin-1-yl)ethoxy)phenyl)-2-phenylbut-1-en-1-yl)phenyl)boronic acid] | 10 to 50 | 10 to 50 | < 10 | > 90
CC/C(=C(\c1ccc(B(O)O)cc1)c1ccc(N2CCC(CNC3CCN(c4ccc5c(c4)C(=O)N(C4CCC(=O)NC4=O)C5=O)CC3)CC2)cc1)c1ccccc1 (centres unmarked) [Compound 39, (Z)-(4-(1-(4-(4-(((1-(2-(2,6-dioxopiperidin-3-yl)-1,3-dioxoisoindolin-5-yl)piperidin-4-yl)amino)methyl)piperidin-1-yl)phenyl)-2-phenylbut-1-en-1-yl)phenyl)boronic acid] | 10 to 50 | 10 to 50 | < 10 | > 90
CC/C(=C(/c1ccc(B(O)O)cc1)c1ccc(N2CCC(CNC3CCN(c4ccc5c(c4)C(=O)N(C4CCC(=O)NC4=O)C5=O)CC3)CC2)cc1)c1ccccc1 (centres unmarked) [Compound 40, (E)-(4-(1-(4-(4-(((1-(2-(2,6-dioxopiperidin-3-yl)-1,3-dioxoisoindolin-5-yl)piperidin-4-yl)amino)methyl)piperidin-1-yl)phenyl)-2-phenylbut-1-en-1-yl)phenyl)boronic acid] | 10 to 50 | 10 to 50 | < 10 | > 90

The remaining lines, values ahead:

IC50 (ER) [nM] | IC50 [1] [nM] | DC50 (ERα) [nM] | Dmax (ERα) [%] | Structure (SMILES)
> 50 | > 50 | 10 to 50 | > 90 | CC/C(=C(/c1ccc(OCCN2CCC(N3CCN(c4ccc5c(c4)C(=O)N(C4CCC(=O)NC4=O)C5=O)CC3)CC2)cc1)c1ccc(B(O)O)cc1)c1ccccc1 (centres unmarked) [Compound 31, (Z)-(4-(1-(4-(2-(4-(4-(2-(2,6-dioxopiperidin-3-yl)-1,3-dioxoisoindolin-5-yl)piperazin-1-yl)piperidin-1-yl)ethoxy)phenyl)-2-phenylbut-1-en-1-yl)phenyl)boronic acid]
> 50 | > 50 | 10 to 50 | > 90 | CC/C(=C(\c1ccc(OCCN2CCC(N3CCN(c4ccc5c(c4)C(=O)N(C4CCC(=O)NC4=O)C5=O)CC3)CC2)cc1)c1ccc(B(O)O)cc1)c1ccccc1 (centres unmarked) [Compound 32, (E)-(4-(1-(4-(2-(4-(4-(2-(2,6-dioxopiperidin-3-yl)-1,3-dioxoisoindolin-5-yl)piperazin-1-yl)piperidin-1-yl)ethoxy)phenyl)-2-phenylbut-1-en-1-yl)phenyl)boronic acid]
10 to 50 | 10 to 50 | < 10 | > 90 | CC/C(=C(/c1ccc(OCCN2CCC(C3CCN(c4ccc5c(c4)C(=O)N(C4CCC(=O)NC4=O)C5=O)CC3)CC2)cc1)c1ccc(B(O)O)cc1)c1ccccc1 (centres unmarked) [Compound 33, (Z)-(4-(1-(4-(2-(1′-(2-(2,6-dioxopiperidin-3-yl)-1,3-dioxoisoindolin-5-yl)-[4,4′-bipiperidin]-1-yl)ethoxy)phenyl)-2-phenylbut-1-en-1-yl)phenyl)boronic acid]
10 to 50 | 10 to 50 | < 10 | > 90 | CC/C(=C(\c1ccc(OCCN2CCC(C3CCN(c4ccc5c(c4)C(=O)N(C4CCC(=O)NC4=O)C5=O)CC3)CC2)cc1)c1ccc(B(O)O)cc1)c1ccccc1 (centres unmarked) [Compound 34, (E)-(4-(1-(4-(2-(1′-(2-(2,6-dioxopiperidin-3-yl)-1,3-dioxoisoindolin-5-yl)-[4,4′-bipiperidin]-1-yl)ethoxy)phenyl)-2-phenylbut-1-en-1-yl)phenyl)boronic acid]
10 to 50 | 10 to 50 | 10 to 50 | > 50 | CC/C(=C(/c1ccc(OCCN2CCN(c3ccc4c(c3)C(=O)N(C3CCC(=O)NC3=O)C4=O)CC2)cc1)c1ccc(B(O)O)cc1)c1ccccc1 (centres unmarked) [Compound 41, (Z)-(4-(1-(4-(2-(4-(2-(2,6-dioxopiperidin-3-yl)-1,3-dioxoisoindolin-5-yl)piperazin-1-yl)ethoxy)phenyl)-2-phenylbut-1-en-1-yl)phenyl)boronic acid]
10 to 50 | 10 to 50 | 10 to 50 | > 50 | CC/C(=C(\c1ccc(OCCN2CCN(c3ccc4c(c3)C(=O)N(C3CCC(=O)NC3=O)C4=O)CC2)cc1)c1ccc(B(O)O)cc1)c1ccccc1 (centres unmarked) [Compound 42, (E)-(4-(1-(4-(2-(4-(2-(2,6-dioxopiperidin-3-yl)-1,3-dioxoisoindolin-5-yl)piperazin-1 yl)ethoxy)phenyl)-2-phenylbut-1-en-1-yl)phenyl)boronic acid]

Reference: US20220348595A1, “COMPOUNDS AND METHODS FOR THE TARGETED DEGRADATION OF ESTROGEN RECEPTORS” (Endotarget Inc., priority 2021, published 2022)
